From publication PMC3288262 (Bioorganic & medicinal chemistry letters, 2012)
Several values for one entry are separate records, joined by “and”; a condition that tells them apart may be missing. Equal entries are not always repeated. Marks after values point to notes of the source that are not given here. Starred links: 1 amine or outer side, 2 acyl side, 3 side chain; linkers in the order of their positions; H or OH if unused. Non-standard residues stand in square brackets, D forms with d. Residues, ends and D or L forms follow the SMILES beside them. Bcp = 4'-[N-((4'-phenyl)phenethyl)carboxamido]phenylalanine, O=C(NCCc1ccc(-c2ccccc2)cc1)c1ccc(C[C@H](N[*:1])C(=O)[*:2])cc1; Tic = O=C(O)[C@@H]1Cc2ccccc2CN1

Assays:
human δ opioid receptor = human δ opioid receptor (Homo sapiens, UniProt P41143); assay type: biochemical; settings: mean of 3–6 determinations ± SEM; for [35S]GTPγS binding ED50: HEK293 cells, human δ opioid receptor
[1] = tested on: μ opioid receptor (guinea pig ileum); test: guinea pig ileum; settings: read-out: GPI IC50; agonist potency; P.A. = partial agonist
δ opioid receptors = δ opioid receptors (Rattus norvegicus, UniProt P33533); settings: ref [10], cited from earlier work
[2] = molecular target: δ opioid receptor (mouse vas deferens, δ receptor-representative) (Mus musculus, UniProt P32300); settings: read-out: MVD IC50; agonist potency; ref [10]; cited from earlier work
μ opioid receptors = μ opioid receptors (Rattus norvegicus, UniProt P33535); settings: read-out: Ki^μ; [3H]DAMGO displacement, rat brain membranes; ref [10]; cited from earlier work
[3] = tested on: μ opioid receptor (guinea pig ileum); settings: partial agonist, IC40 given in IC50 column; ref [10]; cited from earlier work

human δ opioid receptor, sequence (P41143 whole entry): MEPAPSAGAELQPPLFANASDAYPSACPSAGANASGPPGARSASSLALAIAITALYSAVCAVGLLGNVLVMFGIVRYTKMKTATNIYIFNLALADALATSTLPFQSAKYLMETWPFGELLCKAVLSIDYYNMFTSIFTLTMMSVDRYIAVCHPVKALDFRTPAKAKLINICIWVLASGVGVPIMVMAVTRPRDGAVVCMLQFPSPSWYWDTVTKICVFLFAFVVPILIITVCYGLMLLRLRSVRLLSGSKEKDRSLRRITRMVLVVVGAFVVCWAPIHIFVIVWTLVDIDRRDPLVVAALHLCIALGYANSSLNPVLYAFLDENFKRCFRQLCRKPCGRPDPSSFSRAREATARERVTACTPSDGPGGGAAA
δ opioid receptors, sequence (P33533 whole entry): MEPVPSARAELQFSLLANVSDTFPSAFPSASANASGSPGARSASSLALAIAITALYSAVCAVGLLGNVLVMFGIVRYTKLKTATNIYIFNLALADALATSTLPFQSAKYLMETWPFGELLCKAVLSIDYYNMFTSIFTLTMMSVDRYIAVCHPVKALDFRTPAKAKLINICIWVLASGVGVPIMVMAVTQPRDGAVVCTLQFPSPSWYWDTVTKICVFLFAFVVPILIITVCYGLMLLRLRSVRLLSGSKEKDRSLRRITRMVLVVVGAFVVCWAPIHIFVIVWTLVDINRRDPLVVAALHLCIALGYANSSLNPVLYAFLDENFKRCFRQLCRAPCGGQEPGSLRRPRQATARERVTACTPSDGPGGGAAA
μ opioid receptors, sequence (P33535 whole entry): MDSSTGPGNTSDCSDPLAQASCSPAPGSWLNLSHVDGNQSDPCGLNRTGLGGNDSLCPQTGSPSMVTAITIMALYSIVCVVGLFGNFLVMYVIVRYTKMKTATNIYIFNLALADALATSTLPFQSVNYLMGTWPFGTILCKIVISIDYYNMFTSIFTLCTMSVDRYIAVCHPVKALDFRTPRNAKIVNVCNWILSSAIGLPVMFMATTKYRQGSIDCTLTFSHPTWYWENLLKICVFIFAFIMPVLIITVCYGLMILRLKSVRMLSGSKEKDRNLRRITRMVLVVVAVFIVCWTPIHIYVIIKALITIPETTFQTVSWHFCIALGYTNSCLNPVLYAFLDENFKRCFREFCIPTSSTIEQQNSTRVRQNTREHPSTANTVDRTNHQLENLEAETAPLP
δ opioid receptor (mouse vas deferens, δ receptor-representative), sequence (P32300 whole entry): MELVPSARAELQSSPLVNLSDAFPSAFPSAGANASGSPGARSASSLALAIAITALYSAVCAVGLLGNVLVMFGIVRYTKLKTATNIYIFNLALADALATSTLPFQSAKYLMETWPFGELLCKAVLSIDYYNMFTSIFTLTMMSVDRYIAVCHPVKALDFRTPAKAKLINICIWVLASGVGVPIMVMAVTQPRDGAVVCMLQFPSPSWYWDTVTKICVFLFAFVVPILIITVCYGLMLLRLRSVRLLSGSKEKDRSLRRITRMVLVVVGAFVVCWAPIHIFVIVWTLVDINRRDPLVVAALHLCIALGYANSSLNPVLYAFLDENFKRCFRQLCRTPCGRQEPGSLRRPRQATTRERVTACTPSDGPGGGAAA

N[C@@H](Cc1ccc(O)cc1)C(=O)N1Cc2ccccc2C[C@H]1C(=O)N[C@@H](Cc1ccccc1)C(=O)N[C@@H](Cc1ccccc1)C(=O)O [TIPP, H-Tyr-Tic-Phe-Phe-OH, reference compound] (H-Y[Tic]FF-OH)
[35S]GTPγS binding ED50 (human δ opioid receptor): antagonist | IC50 [1]: > 10000 nM

H-Bcp-Tic-Phe-Phe-OH (H-[Bcp][Tic]FF-OH) [Compound 13]
Ki (δ opioid receptors; read-out: Ki^δ, [3H]DSLET displacement, rat brain membranes): 0.605 ± 0.058 nM | IC50 [2]: 3.42 ± 0.36 nM | Ki (μ opioid receptors): 87.7 ± 8 nM

H-Bcp-Tic-Phe-Phe-OH [Compound 13]
GPI IC40 [3]: 223 ± 37 (IC40) ^d nM | Ki^μ/Ki^δ (δ opioid receptors; δ vs. μ receptor binding selectivity): 145 | [35S]GTPγS binding ED50 (human δ opioid receptor): 0.413 ± 0.015 nM | [35S]GTPγS binding efficacy e (human δ opioid receptor; efficacy relative to DPDPE (e = 1.0)): 0.678 and 0.678 ± 0.076
